The values that follow come from ChEMBL document CHEMBL1146320, “Investigating biological activity spectrum for novel quinoline analogues” (Bioorg Med Chem, 2007).

For one data set, the system named is SK-N-MC. The experiment in a line: Antiproliferative activity against human SK-N-MC cells by MTT assay. It counts as functional, cell-based.
The nature of data set [1]: (§1) Inhibition of photosynthesis in spinach chloroplast. It counts as functional, Spinacia oleracea.
Data set [2] is described as follows: Lipophilicity, log K of the compound. The conditions noted are these: octanol/water. The data set is classed as physicochemical.
The test system of another data set is Chlorella vulgaris. Kind of data set: Inhibition of Chlorella vulgaris Beij assessed as reduction of chlorophyll content. The data set is classed as functional, organism-based.
In another data set the test system is Spinacia oleracea. Described as §1. The data set is classed as functional.

Activity calls are given as the source filed them. The rule behind the calls is not given here. Some results are limits rather than exact numbers.

The IC50 is the concentration that inhibits the measured activity by half.

Take `Oc1cccc2ccc(/C=C/c3ccc(Br)cc3)nc12`: the IC50 was more than 6.25 µM with SK-N-MC and 135 µM in data set [1]. Besides, in data set [2], the “log K” value came to 1.5802.
As to `O=C(O)c1ccc2nc(/C=C/c3ccccc3Cl)ccc2c1`, the results for the IC50 (in the data set with Chlorella vulgaris; with SK-N-MC; in data set [1]) were 115 µM, more than 6.25 µM and 215 µM, respectively. In addition, the “log K” value in data set [2] is 1.4787.
On to `Oc1ccc(/N=C/c2ccc3cccc(O)c3n2)cc1`, for which, in the data set on Chlorella vulgaris, the IC50 turned out to be 17 µM. In data set [2], the “log K” value is given as 1.0911.
Regarding `O=C(O)c1ccc2ccc(/C=C/c3cccc(Cl)c3)nc2c1`, in the data set on SK-N-MC, the IC50 was more than 6.25 µM. In data set [2], the “log K” value is 1.2858.
On to `Cc1ccc2c(C(=O)O)cccc2n1`, for which the IC50 in the data set with SK-N-MC is more than 6.25 µM; in data set [1], 146 µM. Also, the “log K” value in data set [2] is 0.3629.
As to `Cc1nc2ccccc2c(=O)[nH]1`, the outcome in the data set with Chlorella vulgaris and in the data set with Spinacia oleracea was inactive. The molecule further returned an IC50 in the data set on SK-N-MC of more than 6.25 µM. In addition, the “log K” value in data set [2] stood at 0.1515.
On to `Oc1cccc(/N=C/c2ccc3cccc(O)c3n2)c1`, for which the half-maximal inhibitory concentration (IC50) in the data set on Chlorella vulgaris stood at 168 µM. The “log K” value in data set [2] is given as 0.886.
Turning to `O=C(O)c1cccc2nc(/C=C/c3ccc(Cl)cc3)ccc12`, the IC50 was 96 µM with Chlorella vulgaris, more than 6.25 µM with SK-N-MC and 487 µM in data set [1]. Further, in data set [2], the “log K” value is 1.3976.
The like results for `Oc1cccc2ccc(/C=C/c3cccc(Cl)c3)nc12` were, in that order, 33 µM, more than 6.25 µM, 146 µM and 1.5395.
As for `COc1ccccc1/C=C/c1ccc2cccc(C(=O)O)c2n1`, in data set [2], the “log K” value amounted to 1.1922.
Regarding `O=[N+]([O-])c1cc([N+](=O)[O-])c2cccnc2c1O`, the IC50 is more than 6.25 µM in the data set on SK-N-MC and 82 µM in data set [1]. In addition, the “log K” value in data set [2] is listed as 0.7154.
Consider `Oc1ccccc1/N=C/c1ccc2cccc(O)c2n1`, for which the IC50 in the data set on Chlorella vulgaris is 11 µM; in the data set with SK-N-MC, more than 6.25 µM. The “log K” value in data set [2] is 0.4308.
On to `Cc1ccc2c(N)cc(N)c(O)c2n1`, for which half-maximal inhibition in data set [1] (IC50) required 142 µM. Also, the “log K” value in data set [2] turned out to be 0.2707.
`Nc1cc(N)c2cccnc2c1O`: the IC50 in the data set with Chlorella vulgaris is 114 µM; in the data set with SK-N-MC, more than 6.25 µM; in data set [1], 185 µM. Also, the “log K” value in data set [2] was determined as 0.0522.
In the case of `O=C(O)c1ccc(C(=O)O)c2nc(/C=C/c3cccc(Br)c3)ccc12`, the “log K” value in data set [2] is on record as 1.2171.
For `Cc1ccc2c([N+](=O)[O-])cc([N+](=O)[O-])c(O)c2n1`, the results for the IC50 (with Chlorella vulgaris; in the data set on SK-N-MC; in data set [1]) were 95 µM, more than 6.25 µM and 26 µM, respectively. Also, the “log K” value in data set [2] came out at 0.7292.
`NC(=S)N/N=C/c1ncccc1N` [TRIAPINE] registered an IC50 with SK-N-MC of 0.31 µM.
For `Oc1cccc2ccc(/C=C/c3ccc(Cl)cc3)nc12`, the IC50 was 0.77 µM in the data set with SK-N-MC and 448 µM in data set [1]. Moreover, the “log K” value in data set [2] is listed as 1.5558.
`CN(C)C(=O)Nc1ccc(Cl)c(Cl)c1` [DCMU] had an IC50 in data set [1] of 1.9 µM.
